# Experimental data published in EP0880968A1, “Pharmaceutical compositions of peptides having low solubility in physiological medium” (Applied Research Systems ARS Holding N.V., priority 1997, dated 1998).
# Values joined by “and” are separate entries in the source; they are usually repeats but may differ in a detail not shown here. Identical values can stand only once. Like-named read-outs stand apart in the source and are kept apart here. Square brackets hold non-standard residues; d marks the D form. Peptide text beside a SMILES is read from it. * marks the point of attachment. dPhe(4-Cl) = N[C@H](Cc1ccc(Cl)cc1)C(=O)O; d2Nal = N[C@H](Cc1ccc2ccccc2c1)C(=O)O; Lys(iPr) = CC(C)NCCCC[C@H](N)C(=O)O; d3Pal = N[C@H](Cc1cccnc1)C(=O)O; Nicotinoyl = O=C(c1cccnc1)*
# Assays:
# [1] = Stability of nicotinamide/antide formulations (chemical compatibility); assay type: physicochemical; settings: pH 5
# Experimental: (§1) RP-HPLC gradient elution, C-18 (e.g. Vydac 218 TP54, 250 x 4.6 mm) column. UV detection at 215 nm, injection volume 15 µl mobile phase A: pH 4.5 phosphate buffer (0.1M), mobile phase B: acetonitrile, flow rate = 1.0 ml/min, runtime = 23 min. External standard solution concentrations of 100 µg/ml were injected during analysis. The gradient was: 77% A, 23% B to 52% A, 48% B […].
# Four formulations of antide and nicotinamide at different concentration ratios and adjusted to pH 5 were prepared and tested over 3 months at +40°C, +25°C and +4°C.
# Chromatographic traces of antide were identical to those of the standard, with the addition of the early eluting nicotinamide peak which appeared at a retention tune of 3.2 minutes.
# [2] = Solubilisation studies (visual appearance and RP-HPLC solubility after equilibration overnight at 25°C); assay type: physicochemical
# Experimental: as §1
# Solubilisation studies were carried out to study the effect of: • pH (solutions were acidified with either acetic acid or hydrochloric acid) • hydrotropic agents (nicotinamide, sodium saccharin, sodium salicylate, sodium benzoate, histidine hydrochloride, thiamine hydrochloride, phenylalanine).
# Saline used in these studies corresponds to 0.9% sodium chloride solution.
# Following the visual analysis, a number of solutions were selected for further quantitative determination of the solubility by filtration (0.45 µm filters) and appropriate dilution using the RP-HPLC method described above.
smiles,measurement,setting,value
CC(=O)N[C@H](Cc1ccc2ccccc2c1)C(=O)N[C@H](Cc1ccc(Cl)cc1)C(=O)N[C@H](Cc1cccnc1)C(=O)N[C@@H](CO)C(=O)N[C@@H](CCCCNC(=O)c1cccnc1)C(=O)N[C@H](CCCCNC(=O)c1cccnc1)C(=O)N[C@@H](CC(C)C)C(=O)N[C@@H](CCCCNC(C)C)C(=O)N1CCC[C@H]1C(=O)N[C@H](C)C(N)=O [antide] (Ac-[d2Nal][dPhe(4-Cl)][d3Pal]SK(Nicotinoyl)[dK](Nicotinoyl)L[Lys(iPr)]P[dA]-NH2),Stability of nicotinamide/antide formulations,"[1]; antide 1 mg/ml, nicotinamide 5%, +4°C, 4W",0.9
same,Stability of nicotinamide/antide formulations,"[1]; antide 1 mg/ml, nicotinamide 5%, +4°C, 12W",1.0
same,Stability of nicotinamide/antide formulations,"[1]; antide 1 mg/ml, nicotinamide 5%, +25°C, 1W",0.9
same,Stability of nicotinamide/antide formulations,"[1]; antide 1 mg/ml, nicotinamide 5%, +25°C, 4W",0.9
same,Stability of nicotinamide/antide formulations,"[1]; antide 1 mg/ml, nicotinamide 5%, +25°C, 12W",1.0
same,Stability of nicotinamide/antide formulations,"[1]; antide 1 mg/ml, nicotinamide 5%, +40°C, 1W",1.0
same,Stability of nicotinamide/antide formulations,"[1]; antide 1 mg/ml, nicotinamide 5%, +40°C, 4W",0.9
same,Stability of nicotinamide/antide formulations,"[1]; antide 1 mg/ml, nicotinamide 5%, +40°C, 12W",1.0
same,Stability of nicotinamide/antide formulations,"[1]; antide 1 mg/ml, nicotinamide 5%, T=0",1.0
same,Stability of nicotinamide/antide formulations,"[1]; antide 1 mg/ml, nicotinamide 25%, +4°C, 4W",1.0
same,Stability of nicotinamide/antide formulations,"[1]; antide 1 mg/ml, nicotinamide 25%, +4°C, 12W",1.1
same,Stability of nicotinamide/antide formulations,"[1]; antide 1 mg/ml, nicotinamide 25%, +25°C, 1W",1.0
same,Stability of nicotinamide/antide formulations,"[1]; antide 1 mg/ml, nicotinamide 25%, +25°C, 4W",1.0
same,Stability of nicotinamide/antide formulations,"[1]; antide 1 mg/ml, nicotinamide 25%, +25°C, 12W",1.1
same,Stability of nicotinamide/antide formulations,"[1]; antide 1 mg/ml, nicotinamide 25%, +40°C, 1W",1.0
same,Stability of nicotinamide/antide formulations,"[1]; antide 1 mg/ml, nicotinamide 25%, +40°C, 4W",1.0
same,Stability of nicotinamide/antide formulations,"[1]; antide 1 mg/ml, nicotinamide 25%, +40°C, 12W",1.1
same,Stability of nicotinamide/antide formulations,"[1]; antide 1 mg/ml, nicotinamide 25%, T=0",1.0
same,Stability of nicotinamide/antide formulations,"[1]; antide 10 mg/ml, nicotinamide 5%, +4°C, 1W",10.3
same,Stability of nicotinamide/antide formulations,"[1]; antide 10 mg/ml, nicotinamide 5%, +4°C, 4W",10.0
same,Stability of nicotinamide/antide formulations,"[1]; antide 10 mg/ml, nicotinamide 5%, +4°C, 12W",10.5
same,Stability of nicotinamide/antide formulations,"[1]; antide 10 mg/ml, nicotinamide 5%, +25°C, 1W",increased viscosity with precipitate formation and gel
same,Stability of nicotinamide/antide formulations,"[1]; antide 10 mg/ml, nicotinamide 5%, +25°C, 4W",gel
same,Stability of nicotinamide/antide formulations,"[1]; antide 10 mg/ml, nicotinamide 5%, +25°C, 12W",gel
same,Stability of nicotinamide/antide formulations,"[1]; antide 10 mg/ml, nicotinamide 5%, +40°C, 1W",increased viscosity with precipitate formation and gel
same,Stability of nicotinamide/antide formulations,"[1]; antide 10 mg/ml, nicotinamide 5%, +40°C, 4W",gel
same,Stability of nicotinamide/antide formulations,"[1]; antide 10 mg/ml, nicotinamide 5%, +40°C, 12W",gel
same,Stability of nicotinamide/antide formulations,"[1]; antide 10 mg/ml, nicotinamide 5%, T=0",9.7
same,Stability of nicotinamide/antide formulations,"[1]; antide 10 mg/ml, nicotinamide 25%, +4°C, 4W",10.1
same,Stability of nicotinamide/antide formulations,"[1]; antide 10 mg/ml, nicotinamide 25%, +25°C, 1W",9.8
same,Stability of nicotinamide/antide formulations,"[1]; antide 10 mg/ml, nicotinamide 25%, +25°C, 4W",9.5
same,Stability of nicotinamide/antide formulations,"[1]; antide 10 mg/ml, nicotinamide 25%, +25°C, 12W",11.1
same,Stability of nicotinamide/antide formulations,"[1]; antide 10 mg/ml, nicotinamide 25%, +40°C, 1W",10.7
same,Stability of nicotinamide/antide formulations,"[1]; antide 10 mg/ml, nicotinamide 25%, +40°C, 4W",9.4
same,Stability of nicotinamide/antide formulations,"[1]; antide 10 mg/ml, nicotinamide 25%, +40°C, 12W",10.2
same,Stability of nicotinamide/antide formulations,"[1]; antide 10 mg/ml, nicotinamide 25%, T=0",9.8
same,solubility thermodynamic,"[2]; 0.9% NaCl solution (saline), saline or isotonic, 0.9% NaCl solution",25 µg/mL
same,Solubility,"[2]; 1% acetic acid in saline, 5 mg/ml antide added, pH 3.12, not quantified, read-out: drug solubility",< 5000 µg/mL
same,solubility thermodynamic,"[2]; WFI (water for injection), pH 4.4, water, WFI, nominal amount added 10 mg/ml, pH 4.40",8130 µg/mL
same,Solubility,"[2]; WFI (water for injection), water, WFI, nominal amount added 1 mg/ml, pH 5.00, read-out: Solubility",≥ 1000 µg/mL
same,Solubility,"[2]; WFI, nominal amount added 10 mg/ml, pH 4.40",8100 µg/mL
same,solubility thermodynamic,"[2]; phosphate buffered saline, aqueous buffer",16 µg/mL
same,Solubility,"[2]; saline + 15% nicotinamide, nominal amount added 5 mg/ml, pH 5.79 (Table 9)",3300 µg/mL and 3320 µg/mL
same,Solubility,"[2]; saline + 15% sodium benzoate, nominal amount added 5 mg/ml, pH 6.69",72 µg/mL
same,Solubility,"[2]; saline + 15% sodium salicylate, nominal amount added 5 mg/ml, pH 5.81",210 µg/mL
same,Solubility,"[2]; saline + 15% thiamine hydrochloride, nominal amount added 5 mg/ml, pH 3.30",3000 µg/mL and 3010 µg/mL
same,Solubility,"[2]; saline + histidine hydrochloride (5%), nominal amount added 5 mg/ml, pH 4.17",76 µg/mL
same,Solubility,"[2]; saline + nicotinamide 10%, nominal amount added 5 mg/ml, pH 5.68",1400 µg/mL
same,Solubility,"[2]; saline + nicotinamide 15%, nominal amount added 5 mg/ml, pH 5.76 (Table 10)",3230 µg/mL
same,Solubility,"[2]; saline + nicotinamide 20%, nominal amount added 10 mg/ml, pH 5.64",8500 µg/mL and 8490 µg/mL
same,Solubility,"[2]; saline + phenylalanine (1.7%), nominal amount added 5 mg/ml, pH 4.59",66 µg/mL
same,solubility thermodynamic,"[2]; saline acidified with acetic acid, pH 3.01, saline or isotonic, nominal amount added 10 mg/ml, pH 3.01",2200 µg/mL
same,Solubility,"[2]; saline acidified with acetic acid, nominal amount added 10 mg/ml, pH 3.01",2230 µg/mL
same,solubility thermodynamic,"[2]; saline, pH 5.04, saline or isotonic, nominal amount added 1 mg/ml, natural pH 5.04",25 µg/mL
